In one assay the test system is phosphorylation of SF3B1. As to the kind of experiment: Western blot of nuclear extracts, phosphor-SF3B1. The conditions noted are these: HCT116 and Rh18 cells, 4 h; SD6 10 μM, compound 1 10 μM, compound 2 5 μM. On the technique in general: Immunoblotting shows a protein as a band on a membrane.
The target in a further assay is T1, PAK4 (h) (Homo sapiens, UniProt O96013).
T1 construct: purchased Eurofins, Dundee, Scotland
As to the kind of experiment: Radiometric protein kinase assay (Eurofins). The assay is classed as biochemical. Conditions: 40 min; ATP 10 μM; read-out: PAK4 IC50.

Another assay addresses T2, FAK (h) (Homo sapiens, UniProt Q05397).
T2 construct: purchased Eurofins, Dundee, Scotland
As to the kind of experiment: Radiometric protein kinase assay (Eurofins). The assay is classed as biochemical. The conditions noted are these: 40 min; ATP 70 μM; read-out: FAK IC50.

Another assay deals with T3, DYRK2 (h) (Homo sapiens, UniProt Q92630).
T3 construct: purchased Eurofins, Dundee, Scotland
T3 sequence (Q92630 1-601): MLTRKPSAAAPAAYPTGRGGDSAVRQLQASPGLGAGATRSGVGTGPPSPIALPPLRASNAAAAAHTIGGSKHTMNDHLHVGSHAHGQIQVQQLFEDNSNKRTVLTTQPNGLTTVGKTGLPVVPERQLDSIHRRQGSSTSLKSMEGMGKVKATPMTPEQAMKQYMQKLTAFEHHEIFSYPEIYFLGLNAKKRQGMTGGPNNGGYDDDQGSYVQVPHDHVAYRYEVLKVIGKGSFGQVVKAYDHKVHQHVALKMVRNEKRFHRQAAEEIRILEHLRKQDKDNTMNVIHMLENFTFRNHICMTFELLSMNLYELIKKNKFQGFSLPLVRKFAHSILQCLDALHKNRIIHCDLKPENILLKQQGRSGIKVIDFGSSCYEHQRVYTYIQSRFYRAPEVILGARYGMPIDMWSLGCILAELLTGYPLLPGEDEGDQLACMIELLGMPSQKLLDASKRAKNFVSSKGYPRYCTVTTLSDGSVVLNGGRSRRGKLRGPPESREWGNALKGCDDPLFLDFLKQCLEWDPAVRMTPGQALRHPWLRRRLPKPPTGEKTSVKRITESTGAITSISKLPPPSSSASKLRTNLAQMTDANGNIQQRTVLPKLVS
As to the kind of experiment: Radiometric protein kinase assay (Eurofins). The assay is classed as biochemical. The conditions noted are these: ATP 15 μM. As to the method:
Enzymatic biochemical activities were evaluated in radiometric protein kinase assays (Eurofins, Dundee, Scotland). Kinases are incubated with buffer, substrate and [γ-^33P]-ATP (specific activity approx. 500 cpm/pmol, concentration as required). The reaction is initiated by the addition of the MgATP mix. After incubation for 40 minutes at room temperature, the reaction is stopped by the addition of 3% phosphoric acid solution. 10 μL of the reaction is then spotted onto a P30 filtermat and washed three times for 5 minutes in 75 mM phosphoric acid and once in methanol prior to drying and scintillation counting. All compounds are prepared to 50x final assay concentration in 100% DMSO. Positive control wells contain all components of the reaction with 2% DMSO. Blank wells contain all components of the reaction, with a reference inhibitor replacing the compound of interest. Each kinase is assigned a standard assay concentration of ATP within 20 μM of its apparent Km. Compounds were screened at 1 μM in duplicate or tested at 10 concentrations at half log dilution starting from 10 μM in singlicate. Dose response curves were fitted with four parameter logistic curve to obtain IC50 values. […]
Staurosporine is used as reference for all tested enzymes except for SRPK3 (reference inhibitor: K-252a. Nocardiopsis sp), NEK2 (reference inhibitor: […]), and CK2, CK2α2, MAPK1, MAPK2 (reference inhibitor: PKR Inhibitor). See Table 1 below for additional details.

The target in a further assay is T4, SF3B1 (Homo sapiens, UniProt O75533+Q7RTV0).
T4 construct: endogenous in cells
As to the kind of experiment: Competitive antagonist assay (TESLR in the presence of SD6 or hit compound). It counts as cell-based. Conditions: 6 μM compound for one hour, then serial dilutions of sudemycinol C for another 4 hours. How it is done: SK-MEL-2/Luc-MDM2 stable cells were plated at a density of 20,000 cells/well in 96-well plates and incubated overnight at 37°C in 5% CO2.[27, 28] The following day, cells were treated with 14 analogs using serial dilution for one hour. The list of compounds screened as potential TESLR antagonists are show in SI file. After one-hour pre-treatment, 4 μM of SD6 were added to the pre-treated cells for another 4 hours. Either 0.5% DMSO or serial dilutions of SD6 were used to treat cells for 4 hours as controls. At the end of incubation time, ONE-Glo™ EX reagents (Promega) were added to measure the luciferase activity. […]
Fig 6 Competitive antagonist assay. (Left Panel) The assay that identified two antagonists of SD6 activity in the TESLR screen, which are useful for the determination of SF3B1 binding. Relative luminescent units were plotted against corresponding drug concentrations and fitted with a standard four parameter sigmoidal curve with GraphPad Prism. (Right Panel) The structures of the antagonists and SD6. See SI for chemistry details.
. SK-MEL-2/Luc-MDM2 stable cells were plated at a density of 20000/well in 96-well plates and incubated overnight at 37°C in 5% CO2. […]. After one-hour pre-treatment, serial dilutions of the sudemycinol C were added to the pre-treated cells for another 4 hours. […]. At the end of incubation time, ONE-Glo™ EX reagents (Promega) were added to measure the luciferase activity. […]. DR: dose response.

Assay [1] relates to phosphorylation of SR proteins. The assay is described as follows: Western blot of nuclear extracts, phosphor-SR proteins. Conditions: HCT116 and Rh18 cells, 4 h; SD6 10 μM, compound 1 10 μM, compound 2 5 μM, compound 3 10 μM.
Experimental: (§1) HCT116 cells were seeded at 3 million cells per 100 mm culture plate. The next day cells were treated with 5 μM or 10 μM of each compound for 4h and 8h. […] The pellet was snap frozen on dry ice and then thawed and spun at 12K rpm for 5 min, 4C. The supernatant was collected (nuclear extract) and protein concentrations determined using BCA Protein Assay Kit. […] The proteins were transferred to PVDF membrane using a wet transfer system. […] After the secondary antibody incubation, membranes were washed 4X with PBS containing 0.1% Tween-20 and 1X with PBS before imaging using the Li-Cor Odyssey imaging system.
(§2) Lanes 6 to 10 are nuclear extracts from Rh18 cells.
Another assay has as its system PAK4. The conditions noted are these: read-out: PAK4 IC50 (previously reported designated target data); cited from earlier work.

Where only a bound is given, the exact number is not on record here.

T2 sequence (Q05397 whole entry): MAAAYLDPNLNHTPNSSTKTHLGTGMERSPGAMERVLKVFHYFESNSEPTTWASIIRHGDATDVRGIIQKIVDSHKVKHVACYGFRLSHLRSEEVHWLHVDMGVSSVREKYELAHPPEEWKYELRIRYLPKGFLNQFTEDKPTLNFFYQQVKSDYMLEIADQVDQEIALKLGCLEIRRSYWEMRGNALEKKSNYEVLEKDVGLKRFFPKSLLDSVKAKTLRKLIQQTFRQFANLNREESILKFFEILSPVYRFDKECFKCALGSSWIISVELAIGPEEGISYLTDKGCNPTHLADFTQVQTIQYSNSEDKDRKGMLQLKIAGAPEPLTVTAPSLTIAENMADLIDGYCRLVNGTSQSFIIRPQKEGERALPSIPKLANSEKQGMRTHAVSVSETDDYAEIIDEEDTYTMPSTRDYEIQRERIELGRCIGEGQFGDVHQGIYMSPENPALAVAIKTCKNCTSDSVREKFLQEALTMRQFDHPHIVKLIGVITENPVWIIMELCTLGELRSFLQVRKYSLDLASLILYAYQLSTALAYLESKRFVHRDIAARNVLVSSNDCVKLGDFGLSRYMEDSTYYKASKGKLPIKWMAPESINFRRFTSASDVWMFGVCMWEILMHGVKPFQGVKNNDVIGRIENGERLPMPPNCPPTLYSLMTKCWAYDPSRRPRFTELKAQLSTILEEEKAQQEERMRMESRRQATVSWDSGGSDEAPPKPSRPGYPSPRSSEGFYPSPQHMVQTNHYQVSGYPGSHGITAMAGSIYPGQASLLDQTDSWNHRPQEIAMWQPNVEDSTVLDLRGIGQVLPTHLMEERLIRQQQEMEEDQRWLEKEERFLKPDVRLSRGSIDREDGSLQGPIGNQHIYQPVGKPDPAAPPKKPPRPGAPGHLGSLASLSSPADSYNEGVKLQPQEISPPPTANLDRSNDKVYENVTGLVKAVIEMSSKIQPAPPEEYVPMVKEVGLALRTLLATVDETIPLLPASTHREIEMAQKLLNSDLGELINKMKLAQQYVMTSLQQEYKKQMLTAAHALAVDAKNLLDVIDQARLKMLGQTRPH
T1 sequence (O96013 whole entry): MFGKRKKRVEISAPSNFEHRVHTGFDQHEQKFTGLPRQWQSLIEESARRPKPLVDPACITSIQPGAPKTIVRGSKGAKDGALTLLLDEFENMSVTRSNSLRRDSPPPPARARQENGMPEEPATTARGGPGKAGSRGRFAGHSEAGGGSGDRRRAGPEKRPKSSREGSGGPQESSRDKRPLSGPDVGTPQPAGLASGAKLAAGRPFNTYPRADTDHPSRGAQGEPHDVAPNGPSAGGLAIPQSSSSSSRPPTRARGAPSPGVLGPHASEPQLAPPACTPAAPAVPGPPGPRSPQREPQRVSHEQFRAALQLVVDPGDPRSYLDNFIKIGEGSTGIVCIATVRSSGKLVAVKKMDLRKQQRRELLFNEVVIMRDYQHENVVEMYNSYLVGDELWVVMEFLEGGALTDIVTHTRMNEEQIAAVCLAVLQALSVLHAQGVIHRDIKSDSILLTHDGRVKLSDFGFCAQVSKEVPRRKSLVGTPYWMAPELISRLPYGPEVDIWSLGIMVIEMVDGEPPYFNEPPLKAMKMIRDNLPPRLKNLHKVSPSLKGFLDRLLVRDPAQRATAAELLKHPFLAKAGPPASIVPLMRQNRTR
Experimental for FAK (h): (§3) Enzymatic biochemical activities were evaluated in radiometric protein kinase assays (Eurofins, Dundee, Scotland). Kinases are incubated with buffer, substrate and [γ-^33P]-ATP (specific activity approx. 500 cpm/pmol, concentration as required). The reaction is initiated by the addition of the MgATP mix. After incubation for 40 minutes at room temperature, the reaction is stopped by the addition of 3% phosphoric acid solution. 10 μL of the reaction is then spotted onto a P30 filtermat and washed three times for 5 minutes in 75 mM phosphoric acid and once in methanol prior to drying and scintillation counting. All compounds are prepared to 50x final assay concentration in 100% DMSO. Positive control wells contain all components of the reaction with 2% DMSO. Blank wells contain all components of the reaction, with a reference inhibitor replacing the compound of interest. […] Compounds were screened at 1 μM in duplicate or tested at 10 concentrations at half log dilution starting from 10 μM in singlicate. Dose response curves were fitted with four parameter logistic curve to obtain IC50 values.
Experimental for PAK4 (h): as §3
Experimental for phosphorylation of SF3B1: as §1, §2

Regarding `CNC(=O)c1nn(C)c2c1C(C)(C)Cc1cnc(Nc3ccc(N4CCN(C)CC4)cc3)nc1-2` [Compound 1, milciclib], in the assay with phosphorylation of SF3B1, the “Effect on phosphorylation of SF3B1 (immunoblot)” value was “reduced phosphorylation of both SR and SF3B1 proteins significantly”. Besides, the inhibition at 1 µM on PAK4 (h) and on FAK (h) was < 50% each time. Further, the IC50 – broadly, the midpoint of a concentration-inhibition curve – against DYRK2 (h) stood at 48 nM. Moreover, the “Antagonism of the compound's TESLR activity by sudemycinol C” value on SF3B1 was “did not antagonize”. The “Effect on phosphorylation of SR proteins (immunoblot)” value in assay [1] is “reduced phosphorylation of both SR and SF3B1 proteins significantly”.
`Cc1nc(Nc2[nH]nc3c2CN(C(=O)N[C@H](CN(C)C)c2ccccc2)C3(C)C)c2sccc2n1` [Compound 2, PF-3758309]: the “Effect on phosphorylation of SF3B1 (immunoblot)” value in the assay on phosphorylation of SF3B1 is “reduced phosphorylation of both SR and SF3B1 proteins significantly”. Further, the inhibition at 1 µM on FAK (h) was < 50%; on DYRK2 (h) (40 min, read-out: DYRK2 IC50), < 50%. Besides, the IC50 with PAK4 was […]. In addition, on SF3B1, the “Antagonism of the compound's TESLR activity by sudemycinol C” value was “did not antagonize”. In addition, the “Effect on phosphorylation of SR proteins (immunoblot)” value in assay [1] is “reduced phosphorylation of both SR and SF3B1 proteins significantly”.

The record behind these values is article PMC7259758 (PLoS ONE, 2020).
